Data from patent US20180185423A1, “SEAWEED EXTRACTS WITH ANTI-CANCER ACTIVITY” (OCEANS LTD., priority 2015, published 2018).
Where “and” joins values, the source holds several entries; their conditions need not be identical. Equal values may be shown once.

Columns and labels:
Test in all cases: CIMA assay (colorimetric indicator of metabolic activity), 72 h exposure
[1] = system: U373 (glioblastoma-astrocytoma); assay type: cell-based, human; conditions: U373, SDS 5% control; 0 = 100.0; in % (unit assumed)
Method: (§1) Stock solutions of the extracts were prepared in dimethylsulfoxide (DMSO) at 10 mg/mL and stored in 200 μl aliquots at −20° C. until analysis. This preparation ensured that the DMSO delivered to cells in culture never exceeded 1%.
(§2) Prepared extracts were assessed following chronic exposure conditions in which cells were seeded at 2×10^3 cells/well (96 wells plate) and incubated with test compounds for 72 h. Each compound was evaluated over a range of concentrations (0, 10, 25, 50 or 100 μg/ml). Cell proliferation was initially assessed using a standard colorimetric indicator of metabolic activity (CIMA) assay. In this assay, tetrazole reduction was evaluated as a measure of metabolic function that evaluates mitochondrial activity to determine the extent of cell proliferation within a culture. This assay is based on the reduction of yellow tetrazolium salt to purple formazan by mitochondrial reductases enzyme in viable cells, resulting in a color changed that confers a change in absorbance. Six human cell lines were selected for primary evaluation: U373 (glioblastoma-astrocytoma), A549 (lung carcinoma), THP-1 (acute monocytic leukemia), MCF7 (mammary gland adenocarcinoma), SKOV3 (ovarian adenocarcinoma), and CCD1079SK (fibroblast, noncancerous but proliferating). From the results shown in Table 2 and FIGS. 4 and 5, the extracts were selected for additional fractionation and evaluated in the same manner.
(§3) Lead crude extracts were fractionated into five fractions by C-18 SPE column separation using 15 ml each of 5% methanol (fraction 1), 25% methanol (fraction 2), 50% methanol (fraction 3), 100% methanol (fraction 4) and […] (fraction 5). Extracts were fractionated and the resulting fractions were evaluated using CIMA assay. Bio-assay guided fractionation provided detailed information regarding the compound(s) responsible for specific bioactivity.

[2] = system: MCF7 (mammary gland adenocarcinoma); assay type: cell-based, human; conditions: MCF7, SDS 5% control; 0 = 100.0; in % (unit assumed)
Method: as §1, §2, §3

[3] = system: CCD1079SK (fibroblast, noncancerous but proliferating); assay type: cell-based, human; conditions: SDS 5% control, 0 = 100.0, in % (unit assumed)
Method: as §1, §2, §3

[4] = system: SKOV3 (ovarian adenocarcinoma); assay type: cell-based, human; conditions: SKOV3, SDS 5% control; 0 = 100.0; in % (unit assumed)
Method: as §1, §2, §3

[5] = system: THP-1 (acute monocytic leukemia); assay type: cell-based, human; conditions: THP-1, SDS 5% control; 0 = 100.0; in % (unit assumed)
Method: as §1, §2, §3

PC3 = assay type: cell-based; conditions: PC3, SDS 5% control; 0 = 100.0
Method: as §1
as §2, with “Six human cell lines were selected for primary evaluation: U373 (glioblastoma-astrocytoma), A549 (lung carcinoma), THP-1 (acute monocytic leukemia), MCF7 (mammary gland adenocarcinoma), SKOV3 (ovarian adenocarcinoma), and CCD1079SK (fibroblast, noncancerous but proliferating).” left out

A549 (lung carcinoma) = assay type: cell-based, human; conditions: A549, SDS 5% control; 0 = 100.0
Method: as §1
as §2, with “Six human cell lines were selected for primary evaluation: U373 (glioblastoma-astrocytoma), A549 (lung carcinoma), THP-1 (acute monocytic leukemia), MCF7 (mammary gland adenocarcinoma), SKOV3 (ovarian adenocarcinoma), and CCD1079SK (fibroblast, noncancerous but proliferating).” left out

Structure (SMILES): CCCCCCCCCCCCOS(=O)(=O)[O-].[Na+] [SDS]
- AVG (viability, CIMA assay) [1]: 48.4 and 58.1
- AVG (viability, CIMA assay) [2]: 44.1 and 49.9
- AVG (viability, CIMA assay) [3]: 9.4 and 11.3
- AVG (viability, CIMA assay) [4]: 78.9 and 56.5
- AVG (viability, CIMA assay) [5]: 20.3 and 36.2
- AVG (viability, CIMA assay) (PC3): 77.3%
- AVG (viability, CIMA assay) (A549 (lung carcinoma)): 68.7%
